Data published in article PMC4798767, “Hydrophobicity of Antifungal β-Peptides Is Associated with Their Cytotoxic Effect on In Vitro Human Colon Caco-2 and Liver HepG2 Cells” (PLoS ONE, 2016).
Converted amounts (≈) assume the structure as drawn. “Also recorded” adds a separate entry of the source.

Columns and labels:
HepG2 cells [1] = assay: Clonogenic assay, long-term effect; assay type: cell-based; conditions: HepG2, 20 μg/mL for 24 hours
Protocol: (§1) HepG2 and Caco-2 were tittered from a culture at 70–80% confluence. HepG2 and Caco-2 cells were seeded at 13,000 and 9,000 cells, respectively, in a clear flat bottom 96-well plate with dark walls (Corning, NY, USA). Then they were allowed to adhere and proliferate in DMEM for 48 hours. Agents were prepared under the following conditions: β-peptides were dissolved and diluted in DMEM to the final working concentration; while AmpB and Keto were first dissolved in DMSO as a vehicle. The DMSO concentration was kept under 0.5% v/v in the experimental sample as well as in the untreated control cell media. Cells were exposed to the agent during 24 hours. Afterwards, the cells were washed two times with Hank’s Balanced Salt Solution (HBSS). Then, fresh DMEM was added to each plate and incubated until the control reached approximately 90% confluency. Cell viability was determined using CellTiter Blue™ (Promega, WI, USA), an assay based on the capacity of cells to reduce resazurin to resorufin, a fluorescent product whose intensity is proportional to the viable cells in the sample. […] After incubation, the fluorescence was measured using a Spectra Max Gemini EM spectrofluorometer (560Ex/590Em) (Sunnyvale, CA, USA). The long-term effect of the treatments with β-peptides was assessed using the model peptide (ACHC-β3hV-β3hK) in a clonogenic assay. In these assays, 1.25x10^5 and 9x10^4 cells/ml from HepG2 and Caco-2, respectively, were seeded in a 25cm^2 flask. The media was changed every two days. Once cells reached a confluence between 70–80%, they were treated in the flask with (ACHC-β3hV-β3hK) at 20 μg/mL in DMEM, a sub-lethal concentration, for 24 hours. They were then washed two times with PBS and allowed to recover in fresh medium for six hours, followed by trypsinization and tittering.
(§2) The long-term cytotoxic effect of β-peptides was evaluated using clonogenic assays (see Fig F in S1 File). In order to validate the data obtained from the dose-response curves for Caco-2 and HepG2, (ACHC-β3hV-β3hK) was selected as a β-peptide model to perform these assays due to its well-established biological activity against C. albicans, its hemolytic activity, and, with this study, its effect on HepG2 and Caco-2. A constant concentration of 20 μg/mL was chosen for these experiments. The chosen concentration of (ACHC-β3hV-β3hK) falls within the range of concentrations used in short-term assays, where 20 μg/mL of this β-peptide assured that both of the cell lines were affected to the same extent.

Caco-2 cells [2] = assay: Clonogenic assay, long-term effect; assay type: cell-based; conditions: Caco-2, 20 μg/mL for 24 hours
Protocol: as §1, §2

[3] = HPLC-RP retention time as measure of β-peptide hydrophobicity; assay type: physicochemical; conditions: used to sort the β-peptides by hydrophobicity
Protocol: Fig 1 i. Structures of antifungal β-peptides used in this study. The codification (#number) corresponds to the nomenclature used by Lee et al. in a previous publication. β-peptide (e) is a fluorescently labeled β-peptide. The C-terminus is amidated for all β-peptides. ii. HPLC-RP retention time for the β-peptides synthesized in this work, see Figs A-D in S1 File for further details. TEXT PRINTED IN THE PICTURE: (ii) #4: Retention time tR: 24.5 ± 0.2 min | (ii) #21: Retention time tR: 25.2 ± 0.2 min | (ii) #5: Retention time tR: 25.4 ± 0.1 min | (ii) #16: Retention time tR: 27.4 ± 0.2 min
The experiments compiled here establish structural-functional correlations of the β-peptides as a function of the cytotoxicity in mammalian cells other than erythrocytes.

Caco-2 cells [4] = assay: In vitro cytotoxicity, CellTiter Blue viability, dose-effect curves; assay type: cell-based; conditions: for IC50 Caco-2: 24 h
Protocol: as §1
(§3) In vitro cytotoxicity assessments for HepG2 and Caco-2 were performed two independent times, each with four replicates (n = 8). A multivariate study of the data was performed through PCA to ascertain the impact of increasing β-peptide hydrophobicity on the viability of the treated cells. PCA was done using XLSTAT 2014 trial version, under a Pearson approach. The input matrix set to the program consisted of eleven rows and four columns of data. The first column contained the concentrations tested and the remainder columns contained the viability ratio obtained after exposure to the β-peptides #4, #5, and #16 (see Fig 1ii). The data of β-peptide #21 was not used in this analysis due to structural differences (lack of ACHC residues), which affects the molecule’s helicity. The ratio IC50/MICaver represents the selectivity of the β-peptides for the fungal cells over that of host cells, termed selectivity index (SI). For the purpose of the present study the SIs were calculated based on MICs for C. albicans published previously.

HepG2 cells [5] = assay: cells; assay type: cell-based, human; conditions: for IC50 HepG2: 24 h
Protocol: as §1, §3

[6] = two independent times, each three biological replicates

SMILES: CC(C)[C@@H](CC(=O)N[C@@H](CCCCN)CC(N)=O)NC(=O)[C@H]1CCCC[C@@H]1NC(=O)C[C@H](CCCCN)NC(=O)C[C@@H](NC(=O)[C@H]1CCCC[C@@H]1NC(=O)C[C@H](CCCCN)NC(=O)C[C@@H](NC(=O)[C@H]1CCCC[C@@H]1N)C(C)C)C(C)C [#4, NH2-(ACHC-β^3hVal-β^3hLys)3]
- surviving fraction (long-term) versus short-term viability (HepG2 cells [1]): no significant difference
- plating efficiency of treated cells (HepG2 cells [1]; [6]): > 9.5%
- surviving fraction (long-term) versus short-term viability; colony forming ability (Caco-2 cells [2]; listed as (ACHC-β3hV-β3hK)): no significant difference; also recorded: slight decrease in colony forming ability
- plating efficiency of treated cells (Caco-2 cells [2]; [6]): > 22%
- Retention time tR [3]: 24.5 ± 0.2 min
- IC50 Caco-2 (Caco-2 cells [4]): 27.33 ± 1.5 µg/mL (≈ 23.6 µM)
- IC50 HepG2 (HepG2 cells [5]): 38.75 ± 0.89 µg/mL (≈ 33.4 µM)

SMILES: CC(C)[C@@H](CC(=O)N[C@@H](CCCNC(=N)N)CC(N)=O)NC(=O)[C@H]1CCCC[C@@H]1NC(=O)C[C@H](CCCNC(=N)N)NC(=O)C[C@@H](NC(=O)[C@H]1CCCC[C@@H]1NC(=O)C[C@H](CCCNC(=N)N)NC(=O)C[C@@H](NC(=O)[C@H]1CCCC[C@@H]1N)C(C)C)C(C)C [#5, NH2-(ACHC-β^3hVal-β^3hArg)3]
- Retention time tR [3]: 25.4 ± 0.1 min
- IC50 Caco-2 (Caco-2 cells [4]): 43.33 ± 9.0 µg/mL (≈ 34.9 µM)
- IC50 HepG2 (HepG2 cells [5]): 47.25 ± 5.12 µg/mL (≈ 38 µM)

SMILES: NCCCC[C@@H](CC(N)=O)NC(=O)C[C@H](Cc1ccccc1)NC(=O)[C@H]1CCCC[C@@H]1NC(=O)C[C@H](CCCCN)NC(=O)C[C@H](Cc1ccccc1)NC(=O)[C@H]1CCCC[C@@H]1NC(=O)C[C@H](CCCCN)NC(=O)C[C@H](Cc1ccccc1)NC(=O)[C@H]1CCCC[C@@H]1NC(=O)C[C@@H](N)Cc1ccc(O)cc1 [#16, NH2-β^3hTyr-(ACHC-β^3hPhe-β^3hLys)3]
- cytotoxicity towards HepG2, dose-effect curve in words (HepG2 cells [5]): greatest toxic effect at these lower concentrations
- IC50 HepG2 (HepG2 cells [5]): 42.5 ± 6.21 µg/mL (≈ 28.7 µM)

SMILES: CC(C)[C@@H](CC(=O)N[C@@H](CCCNC(=N)N)CC(=O)N[C@H](CC(=O)N[C@H](CC(=O)N[C@@H](CCCNC(=N)N)CC(=O)N[C@H](CC(=O)N[C@H](CC(=O)N[C@@H](CCCNC(=N)N)CC(N)=O)C(C)C)C(C)C)C(C)C)C(C)C)NC(=O)C[C@@H](NC(=O)C[C@@H](N)Cc1ccc(O)cc1)C(C)C [#21, NH2-β^3hTyr-(β^3hVal-β^3hVal-β^3hArg)3]
- Retention time tR [3]: 25.2 ± 0.2 min
- IC50 Caco-2 (Caco-2 cells [4]): 31.33 ± 3.27 µg/mL (≈ 22.6 µM)
- IC50 HepG2 (HepG2 cells [5]): 52.5 ± 4.98 µg/mL (≈ 37.9 µM)

SMILES: C[C@@H]1[C@H](O)[C@@H](C)/C=C/C=C/C=C/C=C/C=C/C=C/C=C/[C@H](O[C@@H]2O[C@H](C)[C@@H](O)[C@H](N)[C@@H]2O)C[C@@H]2O[C@](O)(C[C@@H](O)C[C@@H](O)[C@H](O)CC[C@@H](O)C[C@@H](O)CC(=O)O[C@H]1C)C[C@H](O)[C@H]2C(=O)O [AmpB, Amphotericin B, reference compound]
- cytotoxicity towards Caco-2, dose-effect curve in words (Caco-2 cells [4]; Caco-2): did not affect the viability
- cytotoxicity towards HepG2, dose-effect curve in words (HepG2 cells [5]): did not reach 100% cytotoxicity
- IC30 HepG2 (HepG2 cells [5]; 24 hours of exposure, from dose-effect curve): 30 µg/mL (≈ 32.5 µM)
- inhibition at 30 µg/mL (HepG2 cells [5]; Homo sapiens, HepG2, 30 μg/mL, 24 hours of exposure): 30%

SMILES: CC(=O)N1CCN(c2ccc(OCC3COC(Cn4ccnc4)(c4ccc(Cl)cc4Cl)O3)cc2)CC1 (stereo not shown) [Keto, ketoconazole, reference compound]
- cytotoxicity towards Caco-2, dose-effect curve in words (Caco-2 cells [4]; 24 hours of exposure, tested concentration range): not statistically different than the response observed for HepG2
- IC50 (HepG2 cells [5]; Homo sapiens, HepG2, 24 hours of exposure, CellTiter Blue, two independent experiments, each four replicates (n = 8)): 70 µg/mL (≈ 132 µM)

SMILES: COc1ccc2cc(C(=O)NCCOCCOCC(=O)N[C@H]3CCCC[C@@H]3C(=O)N[C@H](CC(=O)N[C@@H](CCCCN)CC(=O)N[C@H]3CCCC[C@@H]3C(=O)N[C@H](CC(=O)N[C@@H](CCCCN)CC(=O)N[C@H]3CCCC[C@@H]3C(=O)N[C@H](CC(=O)N[C@@H](CCCCN)CC(N)=O)C(C)C)C(C)C)C(C)C)c(=O)oc2c1 [coumarin-(ACHC-β3hV-β3hK)]
- effect on viability at 16 μg/mL (HepG2 cells [5]): does not exert a significant effect on viability
